Source: patent US20120035247A1, “RNA Interference Mediated Inhibition of Signal Transducer and Activator of Transcription 6 (STAT6) Gene Expression Using Short Interfering Nucleic Acid (siNA)” (Merck Sharp & Dohme Corp., priority 2009, published 2012)
[invAb] = inverted abasic unit; d = 2'-deoxy (DNA); m = 2'-O-methyl; r = 2'-OH (RNA); f = 2'-fluoro

Columns and labels:
Format in all cases: cell-based
[1] = tested on: STAT6 mRNA; test: STAT6 siNA screen in mouse NIH 3T3 cells, STAT6 mRNA by quantitative RT-PCR (Taqman); settings: mouse NIH3T3 cells, 10 nM siNA, 24 hrs, normalized to GAPDH and non-targeting control, n = 2
Summary of the method: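 NIH 3T3 cells, 5000/well, transfected after 24 h with siNA (10 nM final) via RNAiMax and harvested 24 h later. STAT6 mRNA quantified by TaqMan RT-qPCR with GAPDH; knock-down by comparative Ct (2^−ΔΔCt) against non-targeting control siNA.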

[2] = tested on: human STAT4 mRNA transcript; test: STAT4 specificity screen in human A549 cells, STAT4 mRNA by quantitative RT-PCR; settings: three experiments, mean ± standard deviation
Experimental: A549 (human; ATCC cat# CCL-185): Cells were cultured at 37° C. in the presence of 5% CO2 and grown in Ham's F12K medium with 2 mM L-glutamine adjusted to contain 1.5 g/L sodium bicarbonate and supplemented with fetal bovine serum at a final concentration of 10%, 100 μg/mL of streptomycin, and 100 U/mL penicillin.
A series of probes and primers were used to detect the various mRNA transcripts of the genes of 13-Actin (human cell line only), and of STATE and GAPDH in mouse and human cell lines. All Taqman probes and primers for the experiments here-in described were supplied as pre-validated sets by Applied Biosystems, Inc. (see Table 2).
The assays were performed on an ABI 7900 instrument, according to the manufacturer's instructions. A TaqMan Gene Expression Master Mix (provided in the Cells-to-CTT™, Applied Biosystems, Cat #4399002) was used. The PCR reactions were carried out at 50° C. for 2 min, 95° C. for 20 min followed by 40 cycles at 95° C. for 15 secs and 60° C. for 1 min.
The expression level of the gene of interest and % knock-down was calculated using Comparative Ct method:
ΔΔCt=ΔCt(Target siNA)−ΔCt(NTC)
Relative expression level=2^−ΔΔCt
The non-targeting control siNA was, unless otherwise indicated, chosen as the value against which to calculate the % knock-down, because it is the most relevant control.
The siNAs from Table 4 were tested in human A549 cell line at a lower concentration (1 nM versus the original screening concentration of 10 nM) to determine the effect of the STATE siRNAs on the mRNA transcript of human STAT4.

[3] = tested on: STAT6 mRNA; test: STAT6 siNA screen and dose response in human A549 cells, STAT6 mRNA by quantitative RT-PCR (Taqman); settings: for % KD STAT6: human A549 cells, 10 nM siNA, 24 hrs, normalized to GAPDH and non-targeting control, n = 3
Summary of the method: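 A549 cells were transfected with siNA–RNAiMax complexes at a final 10 nM siNA and incubated 24 h without a medium change. STAT6 mRNA was measured by TaqMan qRT-PCR on cell lysates. Knock-down was calculated by the comparative Ct (ΔΔCt) method against the non-targeting control siNA, with relative expression taken as 2^−ΔΔCt.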

Substance	% KD STAT6 [1] [%]	% KD STAT4 1 nM [2] [%]	% KD STAT6 mRNA 10 nM ([3]; Table 4, human A549 cells, 10 nM, mean ± S.D.) [%]	IC50 ([3]; Table 4, human A549 cells, mean ± S.D.) [pM]	% KD STAT6 10 nM ([3]; Table 5, A549 cells, 10 nM, three experiments, mean ± standard deviation) [%]	% KD STAT6 ([3]; mean ± S.D.) [%]
30005-DC: STAT6 siNA duplex; sense SEQ ID NO: 74, antisense SEQ ID NO: 75; target CUGCACAGCUUGAUAGAAA, site 755 (sense CUGCACAGCUUGAUAGAAATT; antisense UUUCUAUCAAGCUGUGCAGUU; sense: DNA at AGT, 2'-fluoro at CU, [invAb] at 5' end, 3' end, backbone not given here; antisense: sugars from the 5' end rrrffmffmmmffmfmfmmmm, backbone not given here) [STAT6 siNA duplex; target CUGCACAGCUUGAUAGAAA, site 755]	−8 ± 0.5	13.2 ± 14.4	70 ± 8.9	23.2 ± 10.3	70.0 ± 8.9	70 ± 8.9
30010-DC: STAT6 siNA duplex; sense SEQ ID NO: 84, antisense SEQ ID NO: 85; target GGGACAAUGCCUUCUCUGA, site 1568 (sense GGGACAAUGCCUUCUCUGATT; antisense UCAGAGAAGGCAUUGUCCCUU; sense: sugars from the 5' end dddrfddfdffffffffdddd, [invAb] at 5' end, 3' end, backbone not given here; antisense: sugars from the 5' end rrrmmmmmmmfmffmffffmm, backbone not given here) [STAT6 siNA duplex; target GGGACAAUGCCUUCUCUGA, site 1568]	−26.2 ± 0.2	–	–	–	–	6 ± 23.6
30019-DC: STAT6 siNA duplex; sense SEQ ID NO: 102, antisense SEQ ID NO: 103; target GAAACAGCAUCUUGCCGCA, site 506 (sense GAAACAGCAUCUUGCCGCATT; antisense UGCGGCAAGAUGCUGUUUCUU; sense: DNA at AGT, 2'-fluoro at CU, [invAb] at 5' end, 3' end, backbone not given here; antisense: sugars from the 5' end rrrmmfmmmmfmffmffffmm, backbone not given here) [STAT6 siNA duplex; target …UCUUGCCGCA, site 506]	59.6 ± 7.3	–	–	–	–	−9.5 ± 20.6
30025-DC: STAT6 siNA duplex; sense SEQ ID NO: 114, antisense SEQ ID NO: 115; target AACGCUGUCUCCGGAGCUA, site 1848 (sense AACGCUGUCUCCGGAGCUATT; antisense UAGCUCCGGAGACAGCGUUUU; sense: DNA at AGT, 2'-fluoro at CU, [invAb] at 5' end, 3' end, backbone not given here; antisense: sugars from the 5' end rrrffffmmmmmfmmfmffmm, backbone not given here) [STAT6 siNA duplex; target AACGCUGUCUCCGGAGCUA, site 1848]	34.2 ± 1.8	–	–	–	–	48.1 ± 7.5
29992-DC: STAT6 siNA duplex; sense SEQ ID NO: 48, antisense SEQ ID NO: 49; target CUGAGAACCCUCGUCACCA, site 1064 (sense CUGAGAACCCUCGUCACCATT; antisense UGGUGACGAGGGUUCUCAGUU; sense: DNA at AGT, 2'-fluoro at CU, [invAb] at 5' end, 3' end, backbone not given here; antisense: sugars from the 5' end rrrfmmfmmmmmfffffmmmm, backbone not given here) [STAT6 siNA duplex; target CUGAGAACCCUCGUCACCA, site 1064]	−0.5 ± 1	–	–	–	–	51.2 ± 0.4
29994-DC: STAT6 siNA duplex; sense SEQ ID NO: 52, antisense SEQ ID NO: 53; target CUGAUCAUUGGCUUCAUCA, site 1880 (sense CUGAUCAUUGGCUUCAUCATT; antisense UGAUGAAGCCAAUGAUCAGUU; sense: DNA at AGT, 2'-fluoro at CU, [invAb] at 5' end, 3' end, backbone not given here; antisense: sugars from the 5' end rrrfmmmmffmmfmmffmmmm, backbone not given here) [STAT6 siNA duplex; target CUGAUCAUUGGCUUCAUCA, site 1880]	−13.9 ± 4.1	–	–	–	–	1.9 ± 15.7
30001-DC: STAT6 siNA duplex; sense SEQ ID NO: 66, antisense SEQ ID NO: 67; target GAAAGCCUGGUGGACAUUU, site 956 (sense GAAAGCCUGGUGGACAUUUTT; antisense AAAUGUCCACCAGGCUUUCUU; sense: DNA at AGT, 2'-fluoro at CU, [invAb] at 5' end, 3' end, backbone not given here; antisense: sugars from the 5' end rrrfmfffmffmmmfffffmm, backbone not given here) [STAT6 siNA duplex; target GAAAGCCUGGUGGACAUUU, site 956]	−5.9 ± 6.6	–	–	–	–	48.2 ± 5
30012-DC: STAT6 siNA duplex; sense SEQ ID NO: 88, antisense SEQ ID NO: 89; target CAUCGUGCAUGGUAACCAA, site 1521 (sense CAUCGUGCAUGGUAACCAATT; antisense UUGGUUACCAUGCACGAUGUU; sense: DNA at AGT, 2'-fluoro at CU, [invAb] at 5' end, 3' end, backbone not given here; antisense: sugars from the 5' end rrrmffmffmfmfmfmmfmmm, backbone not given here) [STAT6 siNA duplex; target CAUCGUGCAUGGUAACCAA, site 1521]	18 ± 3.2	–	–	–	–	−13.7 ± 15.8
30000-DC: STAT6 siNA duplex; sense SEQ ID NO: 64, antisense SEQ ID NO: 65; target CACAUACAGAGCUCUCUGA, site 3114 (sense CACAUACAGAGCUCUCUGATT; antisense UCAGAGAGCUCUGUAUGUGUU; sense: DNA at AGT, 2'-fluoro at CU, [invAb] at 5' end, 3' end, backbone not given here; antisense: sugars from the 5' end rrrmmmmmffffmfmfmfmmm, backbone not given here) [STAT6 siNA duplex; target CACAUACAGAGCUCUCUGA, site 3114]	−21.9 ± 5.7	–	–	–	–	40.5 ± 12.5
30004-DC: STAT6 siNA duplex; sense SEQ ID NO: 72, antisense SEQ ID NO: 73; target GCCUUCUUAUGACCUUGGA, site 2272 (sense GCCUUCUUAUGACCUUGGATT; antisense UCCAAGGUCAUAAGAAGGCUU; sense: DNA at AGT, 2'-fluoro at CU, [invAb] at 5' end, 3' end, backbone not given here; antisense: sugars from the 5' end rrrmmmmffmfmmmmmmmfmm, backbone not given here) [STAT6 siNA duplex; target GCCUUCUUAUGACCUUGGA, site 2272]	−12.8 ± 9.1	–	–	–	–	3.1 ± 19.6
30011-DC: STAT6 siNA duplex; sense SEQ ID NO: 86, antisense SEQ ID NO: 87; target CCGAGAAUCUCUGCAGCAA, site 726 (sense CCGAGAAUCUCUGCAGCAATT; antisense UUGCUGCAGAGAUUCUCGGUU; sense: DNA at AGT, 2'-fluoro at CU, [invAb] at 5' end, 3' end, backbone not given here; antisense: sugars from the 5' end rrrffmfmmmmmfffffmmmm, backbone not given here) [STAT6 siNA duplex; target CCGAGAAUCUCUGCAGCAA, site 726]	53.4 ± 0.2	–	–	–	–	34.9 ± 11.5
